Data published in patent US9637451B2, “Indole compound” (ASTELLAS PHARMA INC., priority 2014, dated 2017).

Assays:
human MT1 receptor = molecular target: T1, human MT1 receptor (Homo sapiens, UniProt P48039); assay: Activation of human MT1 receptor in receptor-expressing cells, intracellular Ca2+ by FLIPR; type: cell-based; settings: for EC50: HEK293EBNA1 cells stably expressing human MT1 and Gq/i chimeric G protein, Ca2+ FLIPR; for Emax: maximum reaction by ramelteon taken as 100%
T1 construct: expressed in transfected cells

human MT2 receptor = molecular target: T2, human MT2 receptor (Homo sapiens, UniProt P49286); assay: Activation of human MT2 receptor in receptor-expressing cells, intracellular Ca2+ by FLIPR; type: cell-based; settings: for EC50: HEK293 cells stably expressing human MT2 and Gq/i chimeric G protein, Ca2+ FLIPR; for Emax: maximum reaction by ramelteon taken as 100%
T2 construct: expressed in transfected cells
T2 sequence (P49286 1-362): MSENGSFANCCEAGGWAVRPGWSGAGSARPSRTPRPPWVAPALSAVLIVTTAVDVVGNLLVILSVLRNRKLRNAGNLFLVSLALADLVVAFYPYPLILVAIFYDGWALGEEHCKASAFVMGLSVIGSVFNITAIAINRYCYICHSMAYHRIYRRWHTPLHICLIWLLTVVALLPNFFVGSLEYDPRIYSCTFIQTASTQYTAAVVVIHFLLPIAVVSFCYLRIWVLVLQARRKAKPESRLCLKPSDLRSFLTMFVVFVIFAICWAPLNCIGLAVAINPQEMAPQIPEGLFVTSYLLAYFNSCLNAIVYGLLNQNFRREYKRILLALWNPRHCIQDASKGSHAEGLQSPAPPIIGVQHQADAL

[1] = Brain-to-plasma concentration ratio in rat after intravenous administration; type: in vivo; settings: brain and plasma, 15 minutes after intravenous administration
Method: At 15 minutes after intravenously administration of the test compound to the rats, the plasma and brain were collected. A 50% acetonitrile solution and an acetonitrile including internal standard material were added to the collected plasma. The collected brain was added to a 2-fold volume of PBS and homogenized. A 50% acetonitrile solution and an acetonitrile including internal standard material were added to the brain homogenate. The sample was centrifuged at 4° C. and 2150×g for 10 minutes, the supernatant was measured by LC-MS/MS, and the total concentration of the test compound in the brain (Cbrain) and the total concentration of the test compound in the plasma (Cplasma,t) were obtained. The brain-to-plasma concentrations ratio (Kp,brain) was calculated by the following equation.
(§1) The Kp,uu,CSF values and the Kp,brain values of ramelteon and some Example compounds of the present invention are shown in Table 4. Ex represents Example No. of the test compound. Unless otherwise specified, the Kp,uu,CSF was calculated using the fp values determined by an ultracentrifugation method. Further, N.T. represents Not Tested.

[2] = CSF-to-plasma unbound concentration ratio in rat after intravenous administration; type: in vivo; settings: CSF and plasma (unbound), iv, 15 minutes after intravenous administration
Method: A test compound (100 μg/mL, 50% acetonitrile solution) at 1% (v/v) with respect to the amount of the plasma was added to rat plasma, and dispensed to a sample for a supernatant and a sample for the plasma. The sample for a supernatant was ultracentrifuged at 436,000×g and 37° C. for 140 minutes, and the sample for the plasma was incubated at 37° C. for 140 minutes.
After 140 minutes, the sample for a supernatant after the ultracentrifugation and the sample for the plasma were taken, and mixed with the blank plasma or the blank supernatant, respectively. Acetonitrile including an internal standard material was added to each of the samples with the removal of protein, and after the centrifugation at 2150×g and 4° C. for 10 minutes the supernatant was injected into LC-MS/MS.
The unbound fraction in the plasma was calculated by the following equation.
To the plasma of a rat was added a test compound (0.2 mM, 50% acetonitrile solution) in an amount corresponding to 1% (v/v) of the plasma amount, and 200 μL of obtained plasma sample was filled into a plasma chamber of a RED device insert. A buffer chamber was filled with 350 μL of PBS, followed by performing equilibrium dialysis by stirring in a CO2 incubator at 37° C. for 16 hours. The sample after the completion of the equilibrium dialysis was recovered and the volume of the plasma sample was measured. To the plasma sample after the completion of the equilibrium dialysis were added PBS, a 20 mM ammonium formate buffer, and acetonitrile including an internal standard material. Similarly, to the PBS sample after the completion of the equilibrium dialysis was added a blank plasma, a 20 mM ammonium formate buffer, and acetonitrile including an internal standard material. This sample was left to stand at 4° C. for 30 minutes and then centrifuged 1500×g for 10 minutes, and the supernatant was measured by LC-MS/MS. The unbound fraction in the plasma was calculated by the following equation. fp=Cf/{(Cp−Cf)(V/V0)+Cf}
At 15 minutes after intravenously administration of the test compound to the rats, the plasma and CSF were collected. A 50% acetonitrile solution and an acetonitrile including internal standard material were added to the collected plasma or CSF. After centrifuging this sample at 4° C. and 2150×g for 10 minutes, the supernatant was measured by LC-MS/MS, and the total concentration of the test compound in the plasma (Cplasma,t) and the concentration of the test compound in CSF (CCSF) were obtained. The unbound concentration in the plasma (Cplasma,u) of the test compound and the CSF-to-plasma unbound concentration ratio (Kp,uu,CSF) of the test compound was calculated by the following equation.
as §1
(Ramelteon represents the values of Kp,uu,CSF after 10 minutes after the intravenous administration. Further, the Kp,uu,CSF of Examples 37 and 38 was calculated using the fp values determined by an equilibrium dialysis method. In addition, N.D. denotes the concentration of the test compound in CSF that is no higher than the detection limit.)

[3] = system: isolated urethra in a rat; settings: Patent Document 5; cited from earlier work
[4] = fp by ultracentrifugation method
[5] = fp by equilibrium dialysis method

T1 sequence (P48039 whole entry): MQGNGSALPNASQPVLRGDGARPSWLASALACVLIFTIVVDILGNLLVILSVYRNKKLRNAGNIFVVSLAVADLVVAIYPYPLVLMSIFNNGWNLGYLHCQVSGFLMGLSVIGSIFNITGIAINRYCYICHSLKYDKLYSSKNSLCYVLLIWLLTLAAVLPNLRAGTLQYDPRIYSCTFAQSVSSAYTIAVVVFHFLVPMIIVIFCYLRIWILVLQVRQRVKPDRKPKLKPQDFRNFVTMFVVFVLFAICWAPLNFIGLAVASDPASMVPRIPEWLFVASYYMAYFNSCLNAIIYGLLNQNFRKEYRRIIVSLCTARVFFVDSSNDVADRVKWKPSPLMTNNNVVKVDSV

Row | Compound | EC50 (human MT1 receptor) [nM] | Emax (human MT1 receptor) [%] | EC50 (human MT2 receptor) [nM] | Emax (human MT2 receptor) [%] | Kp at 0.25 h [1] | Kp uu at 0.25 h [2, 4] | Kp uu at 0.25 h [2, 5] | contraction of isolated urethra, increase of urethral pressure [3]
1 | CC(=O)NCCc1c[nH]c2ccc(OCCn3ccc(C(F)(F)F)n3)cc12 [Example 4, N-[2-(5-{2-[3-(trifluoromethyl)-1H-pyrazol-1-yl]ethoxy}-1H-indol-3-yl)ethyl]acetamide] | 18 | 102 | 33 | 102 | 0.29 | 0.11 | – | –
2 | COc1ccc(OCCOc2ccc3[nH]cc(CCNC(C)=O)c3c2)cn1 [Example 5, N-[2-(5-{2-[(6-methoxypyridin-3-yl)oxy]ethoxy}-1H-indol-3-yl)ethyl]acetamide] | 13 | 89 | 150 | 48 | 0.089 | 0.1 | – | –
3 | CC(=O)NCCc1c(C)[nH]c2ccc(OCCOc3ccn(C)n3)cc12 [Example 7, N-[2-(2-methyl-5-{2-[(1-methyl-1H-pyrazol-3-yl)oxy]ethoxy}-1H-indol-3-yl)ethyl]acetamide] | 18 | 90 | 22 | 125 | 0.03 | 0.14 | – | –
4 | CCC(=O)NCCc1c[nH]c2ccc(OCCOc3ccn(C)n3)cc12 [Example 8, N-[2-(5-{2-[(1-methyl-1H-pyrazol-3-yl)oxy]ethoxy}-1H-indol-3-yl)ethyl]propanamide] | 9.1 | 93 | 12 | 107 | 0.04 | 0.08 | – | –
5 | CNC(=O)NCCc1c(C)[nH]c2ccc(OCCOc3ccn(C)n3)cc12 [Example 10, 1-methyl-3-[2-(2-methyl-5-{2-[(1-methyl-1H-pyrazol-3-yl)oxy]ethoxy}-1H-indol-3-yl)ethyl]urea] | 8.3 | 95 | 21 | 117 | 0.02 | 0.07 | – | –
6 | CC(=O)NCCc1c(C)[nH]c2ccc(OCCOc3ccnc(C)c3)cc12 [Example 18, N-[2-(2-methyl-5-{2-[(2-methylpyridin-4-yl)oxy]ethoxy}-1H-indol-3-yl)ethyl]acetamide] | 7.7 | 89 | 21 | 123 | 0.03 | 0.11 | – | –
7 | CNC(=O)NCCc1c[nH]c2ccc(OCCOc3ccc(OC)nc3)cc12 [Example 23, 1-[2-(5-{2-[(6-methoxypyridin-3-yl)oxy]ethoxy}-1H-indol-3-yl)ethyl]-3-methylurea] | 21 | 87 | 54 | 68 | 0.03 | 0.04 | – | –
8 | CC(=O)NC[C@H](C)c1c[nH]c2cc(F)c(OCCOc3ccn(C)n3)cc12 [Example 37, N-[(2R)-2-(6-fluoro-5-{2-[(1-methyl-1H-pyrazol-3-yl)oxy]ethoxy}-1H-indol-3-yl)propyl]acetamide] | 2.1 | 105 | 7.1 | 104 | 0.01 | – | 0.08 | –
9 | CC(=O)NC[C@H](C)c1c[nH]c2cc(Cl)c(OCCOc3ccn(C)n3)cc12 [Example 38, N-[(2R)-2-(6-chloro-5-{2-[(1-methyl-1H-pyrazol-3-yl)oxy]ethoxy}-1H-indol-3-yl)propyl]acetamide] | 2 | 97 | 13 | 105 | 0.02 | – | 0.08 | –
10 | COc1ccc2[nH]cc(CCNC(C)=O)c2c1 [Melatonin, melatonin] | – | – | – | – | – | – | – | contract the isolated urethra in a rat to increase the urethral pressure of the rat
11 | COc1cc2c([C@@H](C)CNC(C)=O)c[nH]c2cc1Cl [TIK-301] | – | – | – | – | – | – | – | contract the isolated urethra in a rat to increase the urethral pressure of the rat
12 | COc1ccc2cccc(CCNC(C)=O)c2c1 [agomelatine] | – | – | – | – | – | – | – | contract the isolated urethra in a rat to increase the urethral pressure of the rat
13 | CCC(=O)NC[C@@H]1C[C@H]1c1cccc2c1CCO2 [tasimelteon] | – | – | – | – | – | – | – | contract the isolated urethra in a rat to increase the urethral pressure of the rat
